Source: PMC6149822, “A New Series of Pyrrole-Based Chalcones: Synthesis and Evaluation of Antimicrobial Activity, Cytotoxicity, and Genotoxicity” (Molecules : A Journal of Synthetic Chemistry and Natural …, 2017)
≈ marks a conversion by molar mass, not a printed value. Marks after values point to notes of the source that are not given here.

Tests used:
[1] = system: C. parapsilosis (ATCC 22019); experiment: Microdilution susceptibility assay (MIC); assay type: cell-based, Candida parapsilosis; details: Lodderomyces parapsilosis, ATCC22019
Experimental: (§1) Compounds 1–10 were screened for their antimicrobial activity against gram-negative bacteria, gram-positive bacteria, and yeasts, listed in Table 1. Bacteria were grown in Mueller-Hinton Broth and yeasts were grown in Sabouraud Dextrose Broth (SDB) during experiments. Overnight cultures were prepared routinely by subculturing of stock culture onto Mueller-Hinton Agar for bacteria and Sabouraud Dextrose Agar for yeasts.
(§2) Microdilution susceptibility assay was used for the determination of antibacterial and anticandidal efficacy of compounds 1–10. Chloramphenicol and ketoconazole were used as positive controls for bacteria and yeasts, respectively. All experiments were designed according to the Clinical Laboratory Standards Institute (CLSI). All chemicals were dissolved in dimethyl sulfoxide (DMSO) to obtain stock solution (10 mg/mL). Two-fold serial dilutions (800, 400, 200...0.78 µg/mL) of the compounds were prepared from stock solutions with dH2O. 100 µL of each solution was transferred to 96-well microtiter plates and 100 µL of 10^6 CFU/mL of bacteria and 2 × 10^3 of CFU/mL yeast were added to related wells. As negative controls, wells including microorganisms without agents and wells including agents without microorganisms were used. The plates were kept at 35 °C for 18–20 h and the growth was determined with resazurin (20 mg/mL). Assays were carried out in triplicate.

C. glabrata (ATCC 90030) = experiment: Microdilution susceptibility assay (MIC); assay type: cell-based, Candida glabrata; details: Nakaseomyces glabratus, ATCC90030
Experimental: as §1, §2

C. krusei (ATCC 6258) = experiment: Microdilution susceptibility assay (MIC); assay type: cell-based, Candida krusei; details: Pichia kudriavzevii, ATCC6258
Experimental: as §1, §2

C. krusei cells = experiment: Flow cytometry live/dead analysis (TO/PI); assay type: cell-based, Candida krusei; details: 25 µg/mL, 4 h
Text: In order to investigate the effects of compounds 7 and 9 on the integrity of C. krusei cells, flow cytometry was used with BD cell viability kits. Live cells are impermeable to dyes such as PI since they have intact membranes. TO is a permeant dye and enters live and dead cells to varying degrees. The fluorescent signal from TO in viable cells allows their enumeration, even when debris in the cell preparation contaminates a scatter gate around the cells. Thus, the combination of these two dyes provides a rapid and reliable method for discriminating live and dead eukaryotic cells, including yeasts. All steps were performed according to manufacturers’ recommendations. Briefly, Candida cells were cultured at 35 °C in SDB until late log phase. The cells were centrifuged and washed with phosphate-buffered saline (PBS) at pH = 7.0. Suspensions containing 2 × 10^3 cells/mL were incubated with compounds 7 and 9, and ketoconazole as a reference drug, for 4 h at 35 °C, with shaking (200 r.p.m.). […] Suspensions of treated and untreated cells were incubated for 30 min in the presence of 2 µL of PI and 2 µL of TO, in the dark, at room temperature. The cell suspensions were analysed in a BD Accuri C6 flow cytometer (Becton-Dickinson, Mansfield, MA, USA). The cell scattergram (forward scatter: FS, side scatter: SS), the autofluorescence (without fluorocrome), and the intensity of fluorescence at FL1 (green fluorescence, 525 nm) and FL2 (red fluorescence, 620 nm) were recorded using a logarithmic scale.

[2] = system: Salmonella typhimurium TA98; experiment: Ames MPF mutagenicity assay; assay type: cell-based; details: for Revertants fold increase (over baseline) TA 98 S9+: with S9; for Revertants fold increase (over baseline) TA 98 S9−: without S9; for Genotoxicity classification (Ames MPF): TA98, with/without metabolic activation, 0.16-5 mg/mL
Experimental: (§3) An Ames MPF 98/100 mutagenicity assay sample kit (Xenometrix AG, Allschwil, Switzerland) was used to evaluate the genotoxicity of compounds 7 and 9 as described previously. Salmonella typhimurium TA98 (frameshift mutations) and TA100 (base-pair substitutions) strains were used and the compounds were tested in concentrations between […] and 5000 μg/mL (5.0, 2.5, 1.25, 0.625, 0.3125, 0.156 mg/mL in DMSO) in accordance with the guidelines. Mutagenity was tested with/without metabolic activation with an Aroclor™-1254 induced male Sprague–Dawley rat liver microsomal enzyme (S9) mix (Xenometrix AG, Allschwil, Switzerland). 2-Nitrofluorene (2.0 μg/mL) and 4-nitroquinoline N-oxide (0.1 μg/mL) were used without S9, and 1.0 μg/mL and 2.5 μg/mL of 2-aminoanthracene solutions were used with S9 against TA98 and TA100 as positive controls, respectively. At the end of each experiment, yellow wells were counted as positive and compared with the negative control. Fold induction over the negative control and fold induction over the baseline were calculated as described: Fold induction over the negative control is the ratio of the mean number of positive wells for the dose concentration divided by the mean number of positive wells for the zero-dose (negative) control. Fold induction over the baseline is the ratio of the mean number of positive wells for the dose concentration divided by the zero-dose baseline. The zero-dose baseline is obtained by adding one standard deviation to the mean number of positive wells of the zero-dose control. If the baseline is less than one, the value is set to one for calculation.
(§4) Genotoxicity was determined according to the previous criteria. For a baseline value of ≤3, significant increases between 2- and 3-fold of the baseline were classified as weak mutagens, and increases ≥3-fold of the baseline were classified as mutagens. For a baseline value of >3, significant increases between 1.5- and 2.5-fold of the baseline were classified as weak mutagens, and increases ≥2.5-fold of the baseline were classified as mutagens. At least two adjacent doses with significant increases, or a significant increase at the highest dose level, should be observed for a mutagenic compound. All of the doses were compared according to Student’s t-test at p < 0.05 for statistical significance.

[3] = system: Salmonella typhimurium TA100; experiment: Ames MPF mutagenicity assay; assay type: cell-based; details: for Revertants fold increase (over baseline) TA 100 S9+: with S9; for Revertants fold increase (over baseline) TA 100 S9−: without S9; for Genotoxicity classification (Ames MPF): TA100, with/without metabolic activation, 0.16-5 mg/mL
Experimental: as §3, §4

Row | Compound | MIC [1] [µg/mL] | MIC (C. glabrata (ATCC 90030)) [µg/mL] | MIC (C. krusei (ATCC 6258)) [µg/mL] | Dead Cell % (C. krusei cells) [%] | Live Cell % (C. krusei cells) [%] | Revertants fold increase (over baseline) TA 98 S9+ ([2]; 0.16 mg/mL) | Revertants fold increase (over baseline) TA 98 S9− ([2]; 0.16 mg/mL) | Revertants fold increase (over baseline) TA 98 S9+ ([2]; 0.31 mg/mL) | Revertants fold increase (over baseline) TA 98 S9− ([2]; 0.31 mg/mL) | Revertants fold increase (over baseline) TA 98 S9+ ([2]; 0.63 mg/mL) | Revertants fold increase (over baseline) TA 98 S9− ([2]; 0.63 mg/mL) | Revertants fold increase (over baseline) TA 98 S9+ ([2]; 1.25 mg/mL) | Revertants fold increase (over baseline) TA 98 S9− ([2]; 1.25 mg/mL) | Revertants fold increase (over baseline) TA 98 S9+ ([2]; 2.5 mg/mL) | Revertants fold increase (over baseline) TA 98 S9− ([2]; 2.5 mg/mL) | Revertants fold increase (over baseline) TA 98 S9+ ([2]; 5 mg/mL) | Genotoxicity classification (Ames MPF) [2] | Revertants fold increase (over baseline) TA 100 S9+ ([3]; 0.16 mg/mL) | Revertants fold increase (over baseline) TA 100 S9− ([3]; 0.16 mg/mL) | Revertants fold increase (over baseline) TA 100 S9+ ([3]; 0.31 mg/mL) | also measured
1 | Cn1cccc1C(=O)C=Cc1ccc(-c2ccc(Cl)cc2)o1 [Compound 7, 1-(1-Methyl-1H-pyrrol-2-yl)-3-(5-(4-chlorophenyl)furan-2-yl)prop-2-en-1-one] | 100 (≈ 321 µM) | 100 (≈ 321 µM) | 25 (≈ 80.2 µM) | 20.0 | 79.6 | 0.68 | 0.66 | 0.76 | 0.33 | 1.01 | 0.44 | 0.68 | 0.66 | 0.51 | 0.33 | 0.25 | non-genotoxic | 0.56 | 0.44 | 0.68 | Revertants fold increase (over baseline) TA 100 S9− ([3]; 0.31 mg/mL): 0.56; Revertants fold increase (over baseline) TA 100 S9+ ([3]; 0.63 mg/mL): 0.79; Revertants fold increase (over baseline) TA 100 S9− ([3]; 0.63 mg/mL): 0.67; Revertants fold increase (over baseline) TA 100 S9+ ([3]; 1.25 mg/mL): 0.62; Revertants fold increase (over baseline) TA 100 S9− ([3]; 1.25 mg/mL): 0.33; Revertants fold increase (over baseline) TA 100 S9+ ([3]; 2.5 mg/mL): 0.90; Revertants fold increase (over baseline) TA 100 S9− ([3]; 2.5 mg/mL): 0.33; Revertants fold increase (over baseline) TA 100 S9+ ([3]; 5 mg/mL): 0.79; Revertants fold increase (over baseline) TA 100 S9− ([3]; 5 mg/mL): 0.44; Genotoxicity classification (Ames MPF) [3]: non-genotoxic
2 | Cn1cccc1C(=O)C=Cc1ccc(-c2cc(Cl)ccc2Cl)o1 [Compound 9, 1-(1-Methyl-1H-pyrrol-2-yl)-3-(5-(2,5-dichlorophenyl)furan-2-yl)prop-2-en-1-one] | 50 (≈ 144 µM) | 100 (≈ 289 µM) | 25 (≈ 72.2 µM) | 15.9 | 83.9 | 0.51 | 0.89 | 0.79 | 0.83 | 0.34 * | 0.89 | 0.39 | 1.07 | 0.79 | 0.24 * | 0.51 | non-genotoxic | 0.51 | 0.48 | 0.73 | Revertants fold increase (over baseline) TA 98 S9− ([2]; 5 mg/mL): 0.54; Revertants fold increase (over baseline) TA 100 S9− ([3]; 0.31 mg/mL): 0.54; Revertants fold increase (over baseline) TA 100 S9+ ([3]; 0.63 mg/mL): 0.68; Revertants fold increase (over baseline) TA 100 S9− ([3]; 0.63 mg/mL): 0.54; Revertants fold increase (over baseline) TA 100 S9+ ([3]; 1.25 mg/mL): 0.68; Revertants fold increase (over baseline) TA 100 S9− ([3]; 1.25 mg/mL): 0.54; Revertants fold increase (over baseline) TA 100 S9+ ([3]; 2.5 mg/mL): 0.79; Revertants fold increase (over baseline) TA 100 S9− ([3]; 2.5 mg/mL): 0.30 *; Revertants fold increase (over baseline) TA 100 S9+ ([3]; 5 mg/mL): 0.90; Revertants fold increase (over baseline) TA 100 S9− ([3]; 5 mg/mL): 0.12 *; Genotoxicity classification (Ames MPF) [3]: non-genotoxic
